In article PMC8946265, “Withanolide-Type Steroids from Physalis nicandroides Inhibit HIV Transcription” (Journal of Natural Products, 2021):
Read-outs that look alike come from different tables or passages of the source.

Assays:
in vitro = conditions: human
[1] = test system: X4 recombinant HIV (NL4.3-Ren); conditions: for SI: selectivity index (CC50/IC50): CC50 MT-2 / IC50 HIV NL4.3-Ren
[2] = test system: X4 recombinant HIV (NL4.3-Ren); experiment: microbe, parasite or virus in culture
[3] = test system: HIV transcription (pNL4.3-Luc); experiment: cells; assay type: cell-based, HIV-1; conditions: for IC50: Human immunodeficiency virus 1, MT2, 48 h, read-out: IC50 viral transcription; for SI HIV transcription/HIV infection (specificity index): IC50 transcription / IC50 HIV infection; for effect on HIV transcription (in words): MT-2 cells transfected with NL4.3-Luc, 0.7 to 100 μM
[4] = test system: VSV pseudotyped HIV (VSV-HIV)
[5] = test system: VSV pseudotyped HIV (VSV-HIV); experiment: microbe, parasite or virus in culture; conditions: Vesicular stomatitis virus, MT2, 48 h, read-out: IC50 VSV-HIV
[6] = Human immunodeficiency virus 1, MT2, 48 h, read-out: IC50 (CI95%; R^2) anti-HIV activity, MT-2 cells, NL4.3-Ren, 48 h, mean of at least three independent experiments
[7] = Human immunodeficiency virus 1, MT2, read-out: IC50 HIV, MT-2 cells, HIV infection, values repeated from Table 3 (more decimals)

Compound	CC50 (in vitro) [µM]	SI: selectivity index (CC50/IC50) [1]	IC50 [2, 6] [µM]	also measured
C=C1C(=O)O[C@@H]([C@@H](C)[C@]2(O)C[C@H](OC(C)=O)[C@]3(O)[C@@H]4C[C@H]5O[C@]56CC=CC(=O)[C@]6(C)[C@H]4CC[C@@]32C)C[C@@]1(C)O [Compound 1, 15α-acetoxy-5β,6β-epoxy-14β,17β,24β-trihydroxy-1-oxo-witha-2,25(27)-dien-26,22-olide]	> 100	>8	12.4	–
C=C1C(=O)O[C@@H]([C@@H](C)[C@]2(O)C[C@H](OC(C)=O)[C@]3(O)[C@@H]4C[C@H]5O[C@]56CC=CC(=O)[C@]6(C)[C@H]4CC[C@@]32C)C[C@]1(C)O [Compound 2, 15α-acetoxy-5β,6β-epoxy-14β,17β,24α-trihydroxy-1-oxo-witha-2,25(27)-dien-26,22-olide]	> 100	>5.3	18.7	–
CC(=O)O[C@H]1C=C([C@H](C)[C@H]2CC(C)=C(C)C(=O)O2)[C@@]2(C)CC[C@H]3[C@@H](C[C@@H](O)[C@]45C=C[C@H](OO4)C(=O)[C@]35C)[C@@]12O [Compound 3, 15α-acetoxy-6β,14β-dihydroxy-1-oxo-2α,5α-dioxy-witha-3,16,24-trien-26,22-olide]	> 100	>1.3	76.1	–
CC(=O)O[C@H]1[C@@H]2O[C@]2([C@H](C)[C@H]2CC(C)=C(C)C(=O)O2)[C@@]2(C)CC[C@H]3[C@@H](C[C@@H](O)[C@]45C=C[C@H](OO4)C(=O)[C@]35C)[C@@]12O [Compound 4, 15α-acetoxy-16β,17β-epoxy-6β,14β-dihydroxy-1-oxo-2α,5α-dioxy-witha-3,24-dien-26,22-olide]	> 100	>1.4	72.7	–
CC(=O)O[C@H]1C[C@@](O)([C@H](C)[C@H]2CC(C)=C(C)C(=O)O2)[C@@]2(C)CC[C@H]3[C@@H](C[C@H]4O[C@]45CC=CC(=O)[C@]35C)[C@@]12O [Compound 5, physagulide I]	> 100	–	> 100	–
CC(=O)O[C@H]1C=C([C@H](C)[C@H]2CC(C)=C(C)C(=O)O2)[C@@]2(C)CC[C@H]3[C@@H](C[C@H]4O[C@]45CC=CC(=O)[C@]35C)[C@@]12O [Compound 7, physagulin A]	16	–	< 2	IC50 [3]: 1.97 µM; SI HIV transcription/HIV infection (specificity index) [3]: 1.02; effect on HIV transcription (in words) [3]: inhibited HIV transcription; SI VSV-HIV/HIV (specificity index) [4]: 1.64; fold more potent (antiviral effect) than 17β-hydroxy-withanolide 5 ([1]; IC50 ratio versus compound 5): > 50 fold; fold more potency (anti-HIV) than dihydroxy compound 8 ([1]; IC50 ratio versus compound 8): 35.7 fold; fold more potency (anti-HIV) than halohydrin 9 ([1]; IC50 ratio versus compound 9): 4.7 fold; IC50 [5]: 3.2 µM; IC50 [2, 7]: 1.94 µM
CC(=O)O[C@H]1C=C([C@H](C)[C@H]2CC(C)=C(C)C(=O)O2)[C@@]2(C)CC[C@H]3[C@@H](C[C@@H](O)[C@@]4(O)CC=CC(=O)[C@]34C)[C@]12O [Compound 8, withaminimin]	> 100	>1.5	67.9	–
CC(=O)O[C@H]1C=C([C@H](C)[C@H]2CC(C)=C(C)C(=O)O2)[C@@]2(C)CC[C@H]3[C@@H](C[C@@H](O)[C@@]4(Cl)CC=CC(=O)[C@]34C)[C@]12O [Compound 9, physagulin B]	> 100	>11.2	8.9	–
CC(=O)O[C@H]1C[C@H]([C@H](C)[C@H]2CC(C)=C(C)C(=O)O2)[C@@]2(C)CC[C@H]3[C@@H](C[C@@H](O)[C@@]4(O)CC=CC(=O)[C@]34C)[C@@]12O [Compound 10, physagulin J]	> 100	>3.1	32.7	–
CC(=O)O[C@H]1[C@@H]2O[C@]2([C@H](C)[C@H]2CC(C)=C(C)C(=O)O2)[C@@]2(C)CC[C@H]3[C@@H](C[C@@H](O)[C@@]4(O)CC=CC(=O)[C@]34C)[C@@]12O [Compound 12, physagulin C]	> 100	>4.7	21.1	–
CC(=O)O[C@H]1[C@@H]2O[C@]2([C@H](C)[C@H]2CC(C)=C(C)C(=O)O2)[C@@]2(C)CC[C@H]3[C@@H](C[C@H]4O[C@]45[C@@H](O)C=CC(=O)[C@]35C)[C@@]12O [Compound 13, physagulin F]	15.2	15.5	< 2	IC50 [3]: 1.14 µM; SI HIV transcription/HIV infection (specificity index) [3]: 1.13; effect on HIV transcription (in words) [3]: inhibited HIV transcription; SI VSV-HIV/HIV (specificity index) [4]: 2.66; IC50 [5]: 2.67 µM; IC50 [2, 7]: 1.01 µM
C[C@H](Cn1cnc2c(N)ncnc21)OCP(=O)(O)O [TFV, tenofovir, reference compound]	> 100	–	1.7	IC50 [2, 7]: 1.69 µM
enfuvirtide	–	–	–	activity as VSV-HIV inhibitor (in words) [4]: not active; IC50 ([4]; VSV pseudotyped (VSV-, 48 h)): > 1 µM; SI VSV-HIV/HIV (specificity index) ([4]; VSV pseudotyped (VSV-, 48 h)): >66.67; IC50 ([1]; read-out: IC50 HIV, MT-2 cells, HIV infection, values repeated from Table 3 (more decimals)): 0.015 µM
